These results are taken from patent publication US20100261246A1, “METHOD FOR INHIBITING TELOMERASE REACTION” (PANASONIC CORPORATION, priority 2009, published 2010).

In test [1] the test system is single-stranded DNA. The experiment in a line: Absorbance 480 to 800 nm of phthalocyanine mixed with single-stranded DNA solution. In kind it is binding. The settings on record: 15 μM compound solution, DNA 50 μM, pH7. The protocol:
A solution of 50 mM HEPES and 100 mM NaCl, pH7 (total volume: 100 μL) containing a single-stranded DNA consisting of a sequence of 5′-[…]-3′ sequence (SEQ ID NO: 3) at a concentration of 50 μM was prepared, which was incubated at 90° C. for 5 min, and thereafter cooled to 0° C. at a rate of temperature fall of 2° C./min, followed by finally incubating at 0° C. for 2 hrs. The DNA in thus resulting solution was a single-stranded DNA even after the incubation (hereafter, the solution referred to as “single-stranded DNA solution”).
(§1) Next, the aforementioned CuPC solution and single-stranded DNA solution, and the aforementioned CuPC solution and double-stranded DNA solution were similarly mixed, respectively. And then the absorbance of these liquid mixtures was measured at 480 to 800 nm. FIG. 9(A) and FIG. 9(B) show the results of the measurement in the cases of the single-stranded DNA solution and the double-stranded DNA solution, respectively.
(§2) Next, the aforementioned NiPC solution and single-stranded DNA solution, and the aforementioned NiPC solution and double-stranded DNA solution were similarly mixed, respectively; the absorbance of these liquid mixtures was measured at 480 to 800 nm. FIG. 11(A) and FIG. 11(B) show the results of the measurement in the cases of the single-stranded DNA solution and the double-stranded DNA solution, respectively. In each drawing, the result obtained when the NC solution was used is also shown together.
(§3) Next, the aforementioned PC solution and single-stranded DNA solution, and the aforementioned PC solution and double-stranded DNA solution were similarly mixed, respectively; the absorbance of these liquid mixture was measured at 480 to 800 nm. FIG. 13(A) and FIG. 13(B) show the results of the measurement in the cases of the single-stranded DNA solution and the double-stranded DNA solution, respectively. In each drawing, the result obtained when the NC solution was used is also shown together.
(§4) Next, the aforementioned CoPC solution and single-stranded DNA solution, and the aforementioned CoPC solution and double-stranded DNA solution were similarly mixed, respectively, and then the absorbance of these liquid mixtures was measured at 480 to 800 nm. FIG. 15(A) and FIG. 15(B) show the results of the measurement in the cases of the single-stranded DNA solution and the double-stranded DNA solution, respectively. In each drawing, the result obtained when the NC solution was used is also shown together.

For test [2], the system named is double-stranded DNA. The experiment in a line: Absorbance 480 to 800 nm of phthalocyanine mixed with double-stranded DNA solution. The settings on record: 15 μM compound solution, DNA 50 μM, pH7. In kind it is binding. The protocol: A solution of 50 mM HEPES and 100 mM NaCl, pH7 (total volume: 100 μL) containing a single-stranded DNA consisting of a sequence of 5′-AGAAGAGAAAGA-3′ (SEQ ID NO: 4) and a single-stranded DNA consisting of a sequence of 5′-TCTTTCTCTTCT-3′ (SEQ ID NO: 5) at each concentration of 50 μM was prepared, which was incubated at 90° C. for 5 min, and thereafter cooled to 0° C. at a rate of temperature fall of 2° C./min, followed by finally incubating at 0° C. for 2 hrs. Since the aforementioned two kinds of DNAs are complementary to one another, both DNAs form a double-stranded DNA in the solution as a result of the incubation (hereafter, the solution referred to as “double-stranded DNA solution”).
as §1, §2, §3, §4

Regarding “Copper(II) phthalocyanine-3,4′,4″,4′″-tetrasulfonic acid tetrasodium salt [CuPC]”, the “interaction with the single-stranded DNA (absorption spectrum vs NC solution)” value in test [1] is given as “an interaction did not occur”. In addition, in test [2], the “interaction with the double-stranded DNA (absorption spectrum vs NC solution)” value is “an interaction did not occur”.
On to “Nickel(II) phthalocyanine tetrasulfonic acid tetrasodium salt [NiPC]”, for which, in test [1], the “interaction with the single-stranded DNA (absorption spectrum vs NC solution)” value was “an interaction did not occur”. For the same substance, the “interaction with the double-stranded DNA (absorption spectrum vs NC solution)” value in test [2] was “an interaction did not occur”.
